Measurements taken from ChEMBL document CHEMBL1127594, “Inhibitors of acyl-CoA:cholesterol O-acyltransferase. 11. Structure-activity relationships of several series of compounds derived from N-(chlorocarbonyl) isocyanate” (J Med Chem, 1994).

Assays:
O-acyltransferase = O-acyltransferase (Oryctolagus cuniculus, UniProt G1SFD9); assay: In vitro Acyl coenzyme A:cholesterol acyltransferase inhibitory activity (IAI) was determined by measuring the incorporation of [1-14C]oleolyl-CoA into cholesterol esters by intestinal microsomes isolated from cholesterol-fed rabbits; design: species or system Intestine
O-acyltransferase, sequence (G1SFD9 1-524): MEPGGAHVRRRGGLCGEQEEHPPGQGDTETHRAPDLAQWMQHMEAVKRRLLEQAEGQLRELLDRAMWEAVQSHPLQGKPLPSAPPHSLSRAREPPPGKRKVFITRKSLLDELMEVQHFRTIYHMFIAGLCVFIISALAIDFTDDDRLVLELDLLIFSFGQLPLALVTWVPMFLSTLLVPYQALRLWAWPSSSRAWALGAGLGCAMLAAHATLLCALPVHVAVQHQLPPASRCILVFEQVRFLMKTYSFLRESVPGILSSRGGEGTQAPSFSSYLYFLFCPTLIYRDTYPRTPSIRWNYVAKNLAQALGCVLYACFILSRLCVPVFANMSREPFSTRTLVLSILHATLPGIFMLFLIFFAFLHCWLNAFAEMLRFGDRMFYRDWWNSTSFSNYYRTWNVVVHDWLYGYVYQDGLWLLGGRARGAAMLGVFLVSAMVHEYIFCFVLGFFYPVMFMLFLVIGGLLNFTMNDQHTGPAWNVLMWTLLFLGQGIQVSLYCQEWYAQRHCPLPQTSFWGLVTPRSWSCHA

Rattus norvegicus = assay: In vivo hypocholesterolemic activity was measured in an acute, cholesterol-fed rat model (APCC) at 30 mg/kg dose.; type: functional

IC50 (O-acyltransferase) [nM]	SMILES	Delta TC (Rattus norvegicus) [%]
440	CC(C)c1cccc(C(C)C)c1OC(=O)NC(=O)SCc1ccccc1	<-43
	CCN(CC)C(=O)NC(=O)Nc1c(C(C)C)cccc1C(C)C	-16
9	CCCCCCCCCCCCCOC(=O)NC(=O)Oc1c(C(C)C)cccc1C(C)C	<-69
> 5000	CCCCCCCCCCCCSC(=O)NC(=O)Sc1c(C(C)C)cccc1C(C)C	<-36
10	CCCCCCCCCCCCCCOC(=O)NC(=O)Oc1c(C(C)C)cccc1C(C)C	<-59
	CCCCCCCCCCCCCCCCOC(=O)NC(=O)Oc1c(C(C)C)cccc1C(C)C	<-70
> 5000	CCCCCCCCCCCCCCOC(=O)NC(=O)Oc1c(OC)cc(OC)cc1OC	-15
750	CCCCCCCCC(C)OC(=O)NC(=O)Nc1c(C(C)C)cccc1C(C)C (configuration not stated)	<-22
> 5000	Cc1cccc(C)c1OC(=O)NC(=O)Oc1c(C)cccc1C	4
65	CCCCCCCCCCCCC(C)(C)OC(=O)NC(=O)Nc1c(C(C)C)cccc1C(C)C	
340	CC(C)c1cccc(C(C)C)c1NC(=O)NC(=O)N(c1ccccc1)c1ccccc1	<-49
8	CCCCCCCCCCCCC(C)SC(=O)NC(=O)Oc1c(C(C)C)cccc1C(C)C (racemic)	<-60
250	CCCCN(CCCC)C(=O)NC(=O)Nc1c(C(C)C)cccc1C(C)C	<-30
	CC(C)c1cccc(C(C)C)c1NC(=O)NC(=O)N1CCCC1	-7
1040	CC(C)c1cccc(C(C)C)c1NC(=O)NC(=O)N(Cc1ccccc1)Cc1ccccc1	-14
77	CC(C)c1cccc(C(C)C)c1OC(=O)NC(=O)OCc1ccccc1	-23
97	CC(C)c1cccc(C(C)C)c1OC(=O)NC(=O)SC1CCCCC1	<-63
6800	CCCCCCCCCCCCCCC(C)OC(=O)NC(=O)Nc1c(C(C)C)cccc1C(C)C (configuration not stated)	<-26
210	CCCCCCCCCCCSC(=O)NC(=O)Oc1c(C(C)C)cccc1C(C)C	<-54
750	CC(C)c1cccc(C(C)C)c1NC(=O)NC(=O)N(Cc1ccccc1)C(C)C	<-22
250	CCCCCCCCCCCCSC(=O)NC(=O)Oc1c(OC)cc(OC)cc1OC	<-59
> 1000	CCCCCCCCCCCCC(C)OC(=O)NC(=O)Oc1c(F)cccc1F (racemic)	<-35

IC50 (O-acyltransferase) [nM]	SMILES	Delta TC (Rattus norvegicus) [%]
	CC(C)c1cccc(C(C)C)c1NC(=O)NC(=O)NC(c1ccccc1)c1ccccc1	4
	CCCCCCCCCCCCOC(=O)NC(=O)Sc1c(C(C)C)cccc1C(C)C	-4
350	CCCCCCCCN(CCCCCCCC)C(=O)NC(=O)Nc1c(C(C)C)cccc1C(C)C	3
	CC(C)c1cccc(C(C)C)c1NC(=O)NC(=O)Nc1c(C(C)C)cccc1C(C)C	0
390	CCCCCCCC(C)OC(=O)NC(=O)Nc1c(C(C)C)cccc1C(C)C (configuration not stated)	<-24
46	CCCCCCCCCCCCC(C)OC(=O)NC(=O)Nc1c(C(C)C)cccc1C(C)C (configuration not stated)	<-33
660	CC(C)c1cccc(C(C)C)c1OC(=O)NC(=O)OCCCc1ccccc1	-24
1900	CC(C)c1cccc(C(C)C)c1NC(=O)NC(=O)N1c2ccccc2Sc2ccccc21	-6
880	CC(C)c1cccc(C(C)C)c1OC(=O)NC(=O)SCCc1ccccc1	-30
	CC(C)c1cccc(C(C)C)c1OC(=O)NC(=O)NC(c1ccccc1)c1ccccc1	-4
> 5000	Cc1cccc(C)c1SC(=O)NC(=O)Sc1c(C)cccc1C	-13
120	CCCCCCCCCCCCOC(=O)NC(=O)Nc1c(C(C)C)cccc1C(C)C	<-38
58	CCCCCCCCCCCCCCC(C)OC(=O)NC(=O)Oc1c(C(C)C)cccc1C(C)C (racemic)	<-43
890	CC(C)c1cccc(C(C)C)c1NC(=O)NC(=O)N1CCC(c2ccccc2)CC1	3
7800	CC(C)c1cccc(C(C)C)c1NC(=O)NC(=O)OC(c1ccccc1)c1ccccc1	-3
	CCCCCCCCCCC(C)OC(=O)NC(=O)Nc1c(C(C)C)cccc1C(C)C (configuration not stated)	<-26
1060	CCCCCC(C)OC(=O)NC(=O)Nc1c(C(C)C)cccc1C(C)C (configuration not stated)	<-22
160	CCCCCCCCSC(=O)NC(=O)Oc1c(C(C)C)cccc1C(C)C	<-63
440	CC(C)c1cccc(C(C)C)c1NC(=O)N(C)C(=O)N(c1ccccc1)c1ccccc1	
20	CCCCCCCCCCC(C)(C)COC(=O)NC(=O)Oc1c(C(C)C)cccc1C(C)C	<-72
1700	CCCCCCCCCCCCCCN(C)C(=O)NC(=O)Nc1c(C(C)C)cccc1C(C)C	
890	CC(C)c1cccc(C(C)C)c1NC(=O)NC(=O)N1c2ccccc2Cc2ccccc21	-18

SMILES	IC50 (O-acyltransferase) [nM]	Delta TC (Rattus norvegicus) [%]
CC(C)c1cccc(C(C)C)c1OC(=O)NC(=O)N(c1ccccc1)c1ccccc1	170	-3
CC(C)c1cccc(C(C)C)c1OC(=O)NC(=O)Sc1ccccc1	> 5000	<-37
CC(C)(C)c1cccc(C(C)(C)C)c1OC(=O)NC(=O)Oc1c(C(C)(C)C)cccc1C(C)(C)C	1200	<-23
CCCCCCOC(=O)NC(=O)Oc1c(C(C)C)cccc1C(C)C	53	<-38
CCCCCCCCCCC(C)OC(=O)NC(=O)Oc1c(C(C)C)cccc1C(C)C (racemic)	49	<-66
CCCCCCCCC(C)OC(=O)NC(=O)Oc1c(C(C)C)cccc1C(C)C (racemic)	270	<-54
CCCCCCCCCCCCOC(=O)NC(=O)Oc1c(C(C)C)cccc1C(C)C	21	<-52
CC(C)c1cccc(C(C)C)c1OC(=O)NC(=O)Oc1c(C(C)C)cccc1C(C)C	110	-24
CC(C)c1cccc(C(C)C)c1NC(=O)NC(=O)Oc1c(C(C)C)cccc1C(C)C	980	<-25
CCCCCCCCCCOC(=O)NC(=O)Oc1c(C(C)C)cccc1C(C)C	74	<-44
CCCCCC(C)OC(=O)NC(=O)Oc1c(C(C)C)cccc1C(C)C (racemic)	102	<-60
CC(C)c1cccc(C(C)C)c1OC(=O)NC(=O)SCc1ccc(Cl)cc1	160	<-50
CCCCC[C@H](C)OC(=O)NC(=O)Oc1c(C(C)C)cccc1C(C)C	98	-25
CC(C)c1cccc(C(C)C)c1OC(=O)NC(=O)Sc1c(C(C)C)cccc1C(C)C	3200	<-20
CC(C)c1cccc(C(C)C)c1OC(=O)NC(=O)SCCCc1ccccc1	69	<-63
CCCCCCCCOC(=O)NC(=O)Oc1c(C(C)C)cccc1C(C)C	250	<-47
CCCCCCCC(C)OC(=O)NC(=O)Oc1c(C(C)C)cccc1C(C)C (racemic)	97	<-56

SMILES	IC50 (O-acyltransferase) [nM]	Delta TC (Rattus norvegicus) [%]
CCCCCCCCCCCCC(C)OC(=O)NC(=O)Oc1c(C(C)C)cccc1C(C)C (racemic)	17	<-50
CCCCCCCCCCCCC(C)OC(=O)N(C)C(=O)Oc1c(C(C)C)cccc1C(C)C (racemic)	> 1000	-8
CC(C)c1cccc(C(C)C)c1OC(=O)NC(=O)Oc1ccccc1	1800	<-29
CCCCCCCCCCSC(=O)NC(=O)Oc1c(C(C)C)cccc1C(C)C	130	<-52
CCCCCCCCCCCCSC(=O)NC(=O)Oc1c(C(C)C)cccc1C(C)C	16	<-63
CC(C)c1cccc(C(C)C)c1OC(=O)NC(=O)SCCN1CCOCC1	900	<-33
CCCCCCCCCCCOC(=O)NC(=O)Oc1c(C(C)C)cccc1C(C)C	140	<-65
CCCCCCCCCCCCC(C)(C)OC(=O)NC(=O)Oc1c(C(C)C)cccc1C(C)C	21	<-51
COC(=O)C(OC(=O)NC(=O)Oc1c(C(C)C)cccc1C(C)C)c1ccccc1 (configuration not stated)	940	-3
CCCCC(C)(C)OC(=O)NC(=O)Oc1c(C(C)C)cccc1C(C)C	64	-29
CC(C)c1cccc(C(C)C)c1OC(=O)NC(=O)OC(c1ccccc1)c1ccccc1	350	<-44
CC(C)c1cccc(C(C)C)c1OC(=O)NC(=O)Oc1cccc2ccccc12	3700	
O=C(NC(=O)Oc1c(-c2ccccc2)cccc1-c1ccccc1)Oc1c(-c2ccccc2)cccc1-c1ccccc1	230	0
CCCCC[C@@H](C)OC(=O)NC(=O)Oc1c(C(C)C)cccc1C(C)C	130	<-49
CCCCCCCCCCCCCCCCCCOC(=O)NC(=O)Oc1c(C(C)C)cccc1C(C)C	1000	<-35
CC(C)c1cccc(C(C)C)c1OC(=O)NC(=O)SCc1ccco1	470	<-51
